Measurements published in patent US20250042886A1, “BIS(HETERO)ARYL THIOETHER OXADIAZINES AS FUNGICIDAL COMPOUNDS” (Bayer Aktiengesellschaft, priority 2021, published 2025).

Experiments:
[1] = tested on: Colletotrichum lindemuthianum; assay: Colletotrichum lindemuthianum in vitro cell test; assay type: cell-based; conditions: 144 h, liquid culture, 6 days incubation, read-out: efficacy (inhibition of fungal growth); for inhibition at 50 µM: 50 μMol/l of active ingredient; for inhibition at 20 ppm: 20 ppm of active ingredient
Experimental: (§1) B-7. Colletotrichum lindemuthianum In Vitro Cell Test • Solvent: DMSO • Culture medium: 14.6 g anhydrous D-glucose (VWR), 7.1 g Mycological Peptone (Oxoid), 1.4 g granulated Yeast Extract (Merck), QSP 1 liter • Inoculum: spores suspension Fungicides were solubilized in DMSO and the solution used to prepare the required range of concentrations. […] A spore suspension of C. lindemuthianum was prepared and diluted to the desired spore density. Fungicides were evaluated for their ability to inhibit spores germination and mycelium growth in liquid culture assay. The compounds were added in the desired concentration to the culture medium with spores. After 6 days incubation, fungi-toxicity of compounds was determined by spectrometric measurement of mycelium growth. Inhibition of fungal growth was determined by comparing the absorbance values in wells containing the fungicides with the absorbance in control wells without fungicides.

[2] = tested on: Botrytis cinerea; assay: In vivo preventive test on Botrytis cinerea (grey mould); conditions: 500 ppm of active ingredient, sprayed on young gherkin or cabbage plants 24 h before inoculation, evaluated 4 to 5 days after inoculation, read-out: efficacy
Experimental: (§2) The active ingredients were made soluble and homogenized in a mixture of Dimethyl sulfoxide/Acetone//Tween® 80 and then diluted in water to the desired concentration. The young plants of gherkin or cabbage were treated by spraying the active ingredient prepared as described above. Control plants were treated only with an aqueous solution of Acetone/Dimethyl sulfoxide/Tween® 80. After 24 hours, the plants were contaminated by spraying the leaves with an aqueous suspension of Botrytis cinerea spores.

[3] = tested on: Botrytis cinerea; assay: Botrytis cinerea in vitro cell test; assay type: cell-based; conditions: 144 h, liquid culture, 6 days incubation, read-out: efficacy (inhibition of fungal growth); for inhibition at 50 µM: 50 μMol/l of active ingredient; for inhibition at 20 ppm: 20 ppm of active ingredient
Experimental: B-9. Botrytis cinerea In Vitro Cell Test • Solvent: DMSO • Culture medium: 1 g KH2PO4 (VWR), 1 g K2HPO4 (VWR), 0.5 g Urea (VWR), 3 g KNO3 (Prolabo), 10 g saccharose (VWR), 0.5 g MgSO4, 7H2O (Sigma), 0.07 g CaCl2, 2H2O (Prolabo), 0.2 mg MnSO4, H2O (Sigma), 0.6 mg CuSO4, 5H2O (Sigma), 7.9 mg ZnSO4, 7H2O (Sigma), 0.1 mg H3BO3 (Merck), 0.14 mg NaMoO4, 2H2O (Sigma), 2 mg thiamine (Sigma), 0.1 mg biotine (VWR), 4 mg FeSO4, 7H2O (Sigma), QSP 1 liter • Inoculum: spore suspension Fungicides were solubilized in DMSO and the solution used to prepare the required range of concentrations. […] A spore suspension of B. cinerea was prepared and diluted to the desired spore density. Fungicides were evaluated for their ability to inhibit spore germination and mycelium growth in liquid culture assay. The compounds were added in the desired concentration to the culture medium with spores. After 6 days incubation, fungi-toxicity of compounds was determined by spectrometric measurement of mycelium growth. Inhibition of fungal growth was determined by comparing the absorbance values in wells containing the fungicides with the absorbance in control wells without fungicides.

[4] = tested on: Alternaria brassicae; assay: In vivo preventive test on Alternaria brassicae (leaf spot on radish or cabbage); conditions: 500 ppm of active ingredient, sprayed on young radish or cabbage plants 24 h before inoculation, evaluated 3 to 4 days after inoculation, read-out: efficacy
Experimental: as §2, with “B-1. […] The active” for “The active”, “plants of radish or cabbage” for “plants of gherkin or cabbage”, “suspension of Alternaria brassicae spores.” for “suspension of Botrytis cinerea spores.”

[5] = tested on: Fusarium culmorum; assay: Fusarium culmorum in vitro cell test; assay type: cell-based; conditions: 120 h, 50 μMol/l of active ingredient, liquid culture, 5 days incubation, read-out: efficacy (inhibition of fungal growth)
Experimental: B-10. Fusarium culmorum In Vitro Cell Test • Solvent: DMSO • Culture medium: 1 g KH2PO4 (VWR), 1 g K2HPO4 (VWR), 0.5 g Urea (VWR), 3 g KNO3 (Prolabo), 10 g saccharose (VWR), 0.5 g MgSO4, 7H2O (Sigma), 0.07 g CaCl2, 2H2O (Prolabo), 0.2 mg MnSO4, H2O (Sigma), 0.6 mg CuSO4, 5H2O (Sigma), 7.9 mg ZnSO4, 7H2O (Sigma), 0.1 mg H3BO3 (Merck), 0.14 mg NaMoO4, 2H2O (Sigma), 2 mg thiamine (Sigma), 0.1 mg biotine (VWR), 4 mg FeSO4, 7H2O (Sigma), QSP 1 liter • Inoculum: spores suspension
Fungicides were solubilized in DMSO and the solution used to prepare the required range of concentrations. The final concentration of DMSO used in the assay was ≤1%.
A spore suspension of F. culmorum was prepared and diluted to the desired spore density.
Fungicides were evaluated for their ability to inhibit spore germination and mycelium growth in liquid culture assay. The compounds were added in the desired concentration to the culture medium with spores. After 5 days incubation, fungi-toxicity of compounds was determined by spectrometric measurement of mycelium growth. Inhibition of fungal growth was determined by comparing the absorbance values in wells containing the fungicides with the absorbance in control wells without fungicides.

[6] = tested on: Pyricularia oryzae; assay: microbe, parasite or virus in culture; assay type: cell-based; conditions: 120 h; for inhibition at 50 µM: read-out: efficacy (inhibition of fungal growth), 50 μMol/l of active ingredient, liquid culture, 5 days incubation
[7] = Measurement of Log P values by HPLC on reversed phase columns (EEC directive 79/831 Annex V.A8); assay type: physicochemical; conditions: Table 1, compounds of formula (I); method [a]: LC-UV, acidic range, 0.1% formic acid in water and acetonitrile
[8] = tested on: Alternaria alternata; assay: Alternaria alternata in vitro cell test; assay type: cell-based; conditions: 120 h, liquid culture, 5 days incubation, read-out: efficacy (inhibition of fungal growth); for inhibition at 50 µM: 50 μMol/l of active ingredient
Experimental: as §1, with “B-5. Alternaria alternata In” for “B-7. Colletotrichum lindemuthianum In”, “of A. alternata” for “of C. lindemuthianum”, “inhibit spore” for “inhibit spores”, “After 5” for “After 6”

[9] = tested on: Pyrenophora teres; assay: Pyrenophora teres in vitro cell test; assay type: cell-based; conditions: 144 h, liquid culture, 6 days incubation, read-out: efficacy (inhibition of fungal growth); for inhibition at 50 µM: 50 μMol/l of active ingredient
Experimental: as §1, with “B-8. Pyrenophora teres In” for “B-7. Colletotrichum lindemuthianum In”, “Inoculum: spore” for “Inoculum: spores”, “of P. teres” for “of C. lindemuthianum”, “inhibit spore” for “inhibit spores”

| Compound | inhibition at 50 µM [1] | pest or weed control at 500 ppm [2] | inhibition at 50 µM [3] | pest or weed control at 500 ppm [4] | inhibition at 50 µM [5] | inhibition at 50 µM [6] | chromatographic logP [7] | inhibition at 20 ppm [1] | inhibition at 20 ppm [3] | inhibition at 20 ppm ([8]; 20 ppm of active ingredient) | inhibition at 50 µM [8] | inhibition at 50 µM [9] | inhibition at 20 ppm ([9]; 20 ppm of active ingredient) | inhibition at 20 ppm ([6]; read-out: efficacy (inhibition of fungal growth), 20 ppm of active ingredient, liquid culture, 5 days incubation) |
| --- | --- | --- | --- | --- | --- | --- | --- | --- | --- | --- | --- | --- | --- | --- |
| Cc1ccc([C@H]2CON=C(c3c(Sc4ccc(F)c(F)c4)nnc4ccccc34)N2)s1 (racemic) [Compound I-124] | 70 to 79% | 90 to 100% | 90 to 100% | 80 to 89% | 80 to 89% | 70 to 79% | 3.44 |  |  |  |  |  |  |  |
| Cc1ccc([C@H]2CON=C(c3c(Sc4ccc(C)c(C)c4)nnc4ccccc34)N2)s1 (racemic) [Compound I-080] |  | 90 to 100% | 90 to 100% |  | 90 to 100% | 80 to 89% | 3.76 |  |  |  |  |  |  |  |
| Cc1ccc([C@H]2CON=C(c3c(Sc4cccc(OC(F)(F)F)c4)nnc4ccccc34)N2)s1 (racemic) [Compound I-133] | 90 to 100% | 90 to 100% | 90 to 100% |  | 70 to 79% | 70 to 79% | 3.92 |  |  |  |  |  |  |  |
| Cc1cccc(Sc2nnc(C)c(C)c2C2=NOC[C@H](c3cc(C)sc3C)N2)n1 (racemic) [Compound I-089] |  | 80 to 89% | 70 to 79% | 70 to 79% |  |  | 2.56 |  |  |  |  |  |  |  |
| COc1cccc(Sc2nnc3ccccc3c2C2=NOC[C@@H](Cc3ccc(C)cc3C)N2)c1 (racemic) [Compound I-006] |  | 90 to 100% |  | 90 to 100% |  |  | 3.84 | 90 to 100% | 90 to 100% |  |  |  |  |  |
| Cc1cc([C@@H]2CON=C(c3c(Sc4ccccc4C)nnc(C)c3C)N2)c(C)s1 (racemic) [Compound I-121] |  | 90 to 100% | 90 to 100% | 80 to 89% |  |  | 3.29 |  |  |  |  |  |  |  |
| Cc1cc([C@H]2CON=C(c3c(Sc4ccc(F)c(Cl)c4)nnc(C)c3C)N2)c(C)s1 (racemic) [Compound I-088] | 90 to 100% | 90 to 100% | 90 to 100% | 70 to 79% |  |  | 3.62 |  |  |  |  |  |  |  |
| Cc1cccc(Sc2nnc(Cl)cc2C2=NOC[C@@H](Cc3ccc(Cl)cc3Cl)N2)c1 (racemic) [Compound I-014] |  |  |  |  |  |  | 4.59 |  | 90 to 100% | 70 to 79% |  |  |  |  |
| Cc1cc([C@H]2CON=C(c3c(Sc4ccc(C)c(C)c4)nnc(C)c3C)N2)c(C)s1 (racemic) [Compound I-111] | 90 to 100% | 80 to 89% | 90 to 100% |  | 90 to 100% |  | 3.64 |  |  |  | 70 to 79% | 90 to 100% |  |  |
| COc1ccc(Sc2nnc(C)c(C)c2C2=NOC[C@@H](c3cc(C)sc3C)N2)cc1 (racemic) [Compound I-049] |  |  |  |  |  |  | 3.11 |  |  |  | 70 to 79% | 70 to 79% |  |  |
| Cc1cc([C@@H]2CON=C(c3c(Sc4ccc5ccccc5c4)nnc(C)c3C)N2)c(C)s1 (racemic) [Compound I-122] | 70 to 79% |  |  |  | 90 to 100% |  | 3.68 |  |  |  | 70 to 79% | 80 to 89% |  |  |
| Cc1ccc([C@H]2CON=C(c3c(Sc4ccc(F)c(Cl)c4)nnc4ccccc34)N2)s1 (racemic) [Compound I-068] | 90 to 100% | 90 to 100% | 90 to 100% | 80 to 89% |  |  | 3.74 |  |  |  |  | 70 to 79% |  |  |
| Cc1ccc([C@H]2CON=C(c3c(Sc4ccc(F)cc4)nnc4ccccc34)N2)s1 (racemic) [Compound I-060] |  | 90 to 100% | 90 to 100% | 70 to 79% | 70 to 79% |  | 3.29 |  |  |  |  | 70 to 79% |  |  |
| Clc1cccc(Sc2nnc(Cl)cc2C2=NOC[C@@H](Cc3ccc(Cl)cc3Cl)N2)c1 (racemic) [Compound I-015] |  | 90 to 100% |  | 80 to 89% |  |  | 4.73 | 90 to 100% | 90 to 100% |  |  |  | 90 to 100% | 90 to 100% |
| Cc1cc([C@H]2CON=C(c3c(Sc4ccccn4)nnc(C)c3C)N2)c(C)s1 (racemic) [Compound I-036] | 90 to 100% |  |  |  | 90 to 100% |  | 2.32 |  |  |  |  | 70 to 79% |  |  |
| Cc1ccc([C@@H]2CON=C(c3c(Sc4cccc(Cl)c4Cl)nnc(C)c3C)N2)s1 (racemic) [Compound I-136] |  |  | 90 to 100% |  |  | 70 to 79% | 3.31 |  |  |  | 80 to 89% | 90 to 100% |  |  |
| Cc1cc([C@@H]2CON=C(c3c(Sc4cccc(Cl)c4Cl)nnc(C)c3C)N2)c(C)s1 (racemic) [Compound I-118] | 80 to 89% |  | 90 to 100% |  |  | 80 to 89% | 3.7 |  |  |  | 90 to 100% | 90 to 100% |  |  |
